{"source": "patent US20240018125A1", "about": "“CYCLIC ISOTHIOUREA DERIVATIVES AS CXCR4 MODULATORS” (ERMIUM THERAPEUTICS, priority 2020, published 2024)", "tested_on": "peripheral blood mononuclear cells (PBMCs) from healthy donors", "test": "IFN production by R848-activated PBMCs, quantified with twINNE luciferase reporter cell line", "assay_type": "cell-based, human", "conditions": "Homo sapiens, PBMC; read-out: IC50 of anti-inflammatory activity (IFN production by activated PBMCs)", "method_in_brief": "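Functional IFN was quantified by luciferase output from the twINNE ISRE-reporter line after 24 h on conditioned supernatants. Those supernatants came from human PBMCs (4.10^6/mL) pre-treated with compound and then stimulated for 24 h with 5 μg/mL resiquimod. IC50s were fitted by nonlinear variable-slope regression.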", "note": "Counter-ions that a name gives are not always drawn.", "data": [{"smiles": "c1ccc(CC2CCN(CCSC3=NCc4ccccc4N3)C2)cc1", "note": "(centres unmarked) [Example 154, 2-((2-(3-benzylpyrrolidin-1-yl)ethyl)thio)-1,4-dihydroquinazoline dihydrochloride]", "values": [{"measurement": "IC50", "value": "> 32", "unit": "µM"}]}, {"smiles": "c1ccc2c(c1)CN=C(SCCN1CCOCC1)N2", "note": "[Example 155, 4-(2-((1,4-dihydroquinazolin-2-yl)thio)ethyl)morpholine dihydrochloride]", "values": [{"measurement": "IC50", "value": "> 32", "unit": "µM"}]}, {"smiles": "F[C@H]1CCN(CCSC2=NCc3ccccc3N2)C1", "note": "[Example 156, (S)-2-((2-(3-fluoropyrrolidin-1-yl)ethyl)thio)-1,4-dihydroquinazoline dihydrochloride]", "values": [{"measurement": "IC50", "value": "10 to 32", "unit": "µM"}]}, {"smiles": "F[C@@H]1CCN(CCSC2=NCc3ccccc3N2)C1", "note": "[Example 157, (R)-2-((2-(3-fluoropyrrolidin-1-yl)ethyl)thio)-1,4-dihydroquinazoline dihydrochloride]", "values": [{"measurement": "IC50", "value": "10 to 32", "unit": "µM"}]}, {"smiles": "CN1CCCC1CCSC1=NCc2cc(Cl)ccc2N1", "note": "(centres unmarked) [Example 158, 6-chloro-2-((2-(1-methylpyrrolidin-2-yl)ethyl)thio)-1,4-dihydroquinazoline dihydrochloride]", "values": [{"measurement": "IC50", "value": "≤ 10", "unit": "µM"}]}, {"smiles": "c1ccc2c(c1)CCN=C(SCCCCN1CCCC1)N2", "note": "[Example 159, 2-((4-(pyrrolidin-1-yl)butyl)thio)-4,5-dihydro-1H-benzo[d][1,3]diazepine dihydrochloride]", "values": [{"measurement": "IC50", "value": "10 to 32", "unit": "µM"}]}, {"smiles": "CC1(C)N=C(SCCCCN2CCCC2)Nc2ccccc21", "note": "[Example 160, 4,4-dimethyl-2-((4-(pyrrolidin-1-yl)butyl)thio)-1,4-dihydroquinazoline dihydrochloride]", "values": [{"measurement": "IC50", "value": "> 32", "unit": "µM"}]}, {"smiles": "Clc1ccc2c(c1)CN=C(SCCCN1CCCC1)N2", "note": "[Example 161, 6-chloro-2-((3-(pyrrolidin-1-yl)propyl)thio)-1,4-dihydroquinazoline dihydrochloride]", "values": [{"measurement": "IC50", "value": "≤ 10", "unit": "µM"}]}, {"smiles": "CC(CCCSC1=NCc2cc(Cl)ccc2N1)N1CCCC1", "note": "(centres unmarked) [Example 162, 6-chloro-2-((4-(pyrrolidin-1-yl)pentyl)thio)-1,4-dihydroquinazoline dihydrochloride]", "values": [{"measurement": "IC50", "value": "≤ 10", "unit": "µM"}]}, {"smiles": "Brc1ccc2c(c1)CN=C(SCCCCN1CCCC1)N2", "note": "[Example 163, 6-bromo-2-((4-(pyrrolidin-1-yl)butyl)thio)-1,4-dihydroquinazoline dihydrochloride]", "values": [{"measurement": "IC50", "value": "≤ 10", "unit": "µM"}]}, {"smiles": "Clc1ccc2c(c1)CN=C(SCCCCN1CCCCC1)N2", "note": "[Example 164, 6-chloro-2-((4-(piperidin-1-yl)butyl)thio)-1,4-dihydroquinazoline dihydrochloride]", "values": [{"measurement": "IC50", "value": "≤ 10", "unit": "µM"}]}, {"smiles": "CC(CCCSC1=NCc2ccccc2N1)N1CCCC1", "note": "(centres unmarked) [Example 165, 2-((4-(pyrrolidin-1-yl)pentyl)thio)-1,4-dihydroquinazoline dihydrochloride]", "values": [{"measurement": "IC50", "value": "10 to 32", "unit": "µM"}]}, {"smiles": "C[C@@H](CSC1=NCc2cc(Cl)ccc2N1)N1CCCC1", "note": "[Example 166, (S)-6-chloro-2-((2-(pyrrolidin-1-yl)propyl)thio)-1,4-dihydroquinazoline dihydrochloride]", "values": [{"measurement": "IC50", "value": "≤ 10", "unit": "µM"}]}, {"smiles": "C[C@H](CSC1=NCc2cc(Cl)ccc2N1)N1CCCC1", "note": "[Example 167, (R)-6-chloro-2-((2-(pyrrolidin-1-yl)propyl)thio)-1,4-dihydroquinazoline dihydrochloride]", "values": [{"measurement": "IC50", "value": "≤ 10", "unit": "µM"}]}, {"smiles": "C[C@@H](CN1CCCC1)SC1=NCc2cc(Cl)ccc2N1", "note": "[Example 168, (S)-6-chloro-2-((1-(pyrrolidin-1-yl)propan-2-yl)thio)-1,4-dihydroquinazoline dihydrochloride]", "values": [{"measurement": "IC50", "value": "10 to 32", "unit": "µM"}]}, {"smiles": "COc1ccc(CC2(C)CN=C(SCCCCN3CCCC3)N2)cc1", "note": "(centres unmarked) [Example 169, 5-(4-methoxybenzyl)-5-methyl-2-((4-(pyrrolidin-1-yl)butyl)thio)-4,5-dihydro-1H-imidazole dihydrochloride]", "values": [{"measurement": "IC50", "value": "> 32", "unit": "µM"}]}, {"smiles": "CC1(c2ccccc2)CN=C(SCCCCN2CCCC2)N1", "note": "(centres unmarked) [Example 170, 5-methyl-5-phenyl-2-((4-(pyrrolidin-1-yl)butyl)thio)-4,5-dihydro-1H-imidazole dihydrochloride]", "values": [{"measurement": "IC50", "value": "> 32", "unit": "µM"}]}, {"smiles": "c1ccc2c(c1)CN=C(SCCCCN1CCCC1)NC2", "note": "[Example 171, 3-((4-(pyrrolidin-1-yl)butyl)thio)-2,5-dihydro-1H-benzo[e][1,3]diazepine dihydrochloride]", "values": [{"measurement": "IC50", "value": "> 32", "unit": "µM"}]}, {"smiles": "CC1(C)CN=C(SCCCCN2CCCC2)N1", "note": "[Example 172, 4,4-dimethyl-2-((4-(pyrrolidin-1-yl)butyl)thio)-4,5-dihydro-1H-imidazole dihydrochloride]", "values": [{"measurement": "IC50", "value": "> 32", "unit": "µM"}]}, {"smiles": "C1CN=C(SCCCCN2CCCC2)NC1", "note": "[Example 173, 2-((4-(pyrrolidin-1-yl)butyl)thio)-1,4,5,6-tetrahydropyrimidine dihydrochloride]", "values": [{"measurement": "IC50", "value": "> 32", "unit": "µM"}]}, {"smiles": "CN1CCCC1CCCSC1=NCc2cc(Cl)ccc2N1", "note": "(centres unmarked) [Example 174, 6-chloro-2-((3-(1-methylpyrrolidin-2-yl)propyl)thio)-1,4-dihydroquinazoline dihydrochloride]", "values": [{"measurement": "IC50", "value": "≤ 10", "unit": "µM"}]}, {"smiles": "C(CCN1CCCC1)CSC1=NCCN1", "note": "[Example 175, 2-((4-(pyrrolidin-1-yl)butyl)thio)-4,5-dihydro-1H-imidazole dihydrochloride]", "values": [{"measurement": "IC50", "value": "> 32", "unit": "µM"}]}, {"smiles": "Clc1ccc2c(c1)CN=C(SCCCCn1ccnc1)N2", "note": "[Example 176, 2-((4-(1H-imidazol-1-yl)butyl)thio)-6-chloro-1,4-dihydroquinazoline dihydrochloride]", "values": [{"measurement": "IC50", "value": "10 to 32", "unit": "µM"}]}, {"smiles": "CN1CCC(CCSC2=NCc3cc(Cl)ccc3N2)C1", "note": "(centres unmarked) [Example 177, 6-chloro-2-((2-(1-methylpyrrolidin-3-yl)ethyl)thio)-1,4-dihydroquinazoline dihydrochloride]", "values": [{"measurement": "IC50", "value": "≤ 10", "unit": "µM"}]}, {"smiles": "C1CCNC(SCCCCN2CCCC2)=NC1", "note": "[Example 178, 2-((4-(pyrrolidin-1-yl)butyl)thio)-4,5,6,7-tetrahydro-1H-1,3-diazepine dihydrochloride]", "values": [{"measurement": "IC50", "value": "> 32", "unit": "µM"}]}, {"smiles": "CC1(C)CN=C(SCCCCN2CCCC2)NC1", "note": "[Example 179, 5,5-dimethyl-2-((4-(pyrrolidin-1-yl)butyl)thio)-1,4,5,6-tetrahydropyrimidine dihydrochloride]", "values": [{"measurement": "IC50", "value": "> 32", "unit": "µM"}]}, {"smiles": "c1ccc2c(c1)NC(SCCCCN1CCCC1)=NC21CC1", "note": "[Example 180, 2′-((4-(pyrrolidin-1-yl)butyl)thio)-1′H-spiro[cyclopropane-1,4′-quinazoline] dihydrochloride]", "values": [{"measurement": "IC50", "value": "10 to 32", "unit": "µM"}]}, {"smiles": "c1ccc(CC2CN=C(SCCCCN3CCCC3)N2)cc1", "note": "(centres unmarked) [Example 181, 5-benzyl-2-((4-(pyrrolidin-1-yl)butyl)thio)-4,5-dihydro-1H-imidazole dihydrochloride]", "values": [{"measurement": "IC50", "value": "> 32", "unit": "µM"}]}, {"smiles": "c1ccc2c(c1)CCN=C(SCCN1CCCC1)N2", "note": "[Example 182, 2-((2-(pyrrolidin-1-yl)ethyl)thio)-4,5-dihydro-1H-benzo[d][1,3]diazepine dihydrochloride]", "values": [{"measurement": "IC50", "value": "10 to 32", "unit": "µM"}]}, {"smiles": "COc1ccc(CC2(C)CN=C(SCCN3CCCC3)N2)cc1", "note": "(centres unmarked) [Example 183, 5-(4-methoxybenzyl)-5-methyl-2-((2-(pyrrolidin-1-yl)ethyl)thio)-4,5-dihydro-1H-imidazole dihydrochloride]", "values": [{"measurement": "IC50", "value": "> 32", "unit": "µM"}]}, {"smiles": "C1CCC2NC(SCCN3CCCC3)=NCC2C1", "note": "(centres unmarked) [Example 184, 2-((2-(pyrrolidin-1-yl)ethyl)thio)-1,4,4a,5,6,7,8,8a-octahydroquinazoline dihydrochloride]", "values": [{"measurement": "IC50", "value": "> 32", "unit": "µM"}]}, {"smiles": "C(CCN1CCCC1)CSC1=NCC2(CC2)N1", "note": "[Example 185, 5-((4-(pyrrolidin-1-yl)butyl)thio)-4,6-diazaspiro[2.4]hept-5-ene dihydrochloride]", "values": [{"measurement": "IC50", "value": "> 32", "unit": "µM"}]}, {"smiles": "c1ccc2c(c1)CN=C(SCCN1CCCC1)NC2", "note": "[Example 186, 3-((2-(pyrrolidin-1-yl)ethyl)thio)-2,5-dihydro-1H-benzo[e][1,3]diazepine dihydrochloride]", "values": [{"measurement": "IC50", "value": "> 32", "unit": "µM"}]}, {"smiles": "C1CCN(CCSC2=NCC3(CC3)N2)C1", "note": "[Example 187, 5-((2-(pyrrolidin-1-yl)ethyl)thio)-4,6-diazaspiro[2.4]hept-5-ene dihydrochloride]", "values": [{"measurement": "IC50", "value": "≤ 10", "unit": "µM"}]}, {"smiles": "c1ccc2c(c1)CCN=C(SCc1ccncc1)N2", "note": "[Example 188, 2-((pyridin-4-ylmethyl)thio)-4,5-dihydro-1H-benzo[d][1,3]diazepine dihydrochloride]", "values": [{"measurement": "IC50", "value": "10 to 32", "unit": "µM"}]}, {"smiles": "c1ccc2c(c1)CN=C(SCc1ccncc1)NC2", "note": "[Example 189, 3-((pyridin-4-ylmethyl)thio)-2,5-dihydro-1H-benzo[e][1,3]diazepine dihydrochloride]", "values": [{"measurement": "IC50", "value": "> 32", "unit": "µM"}]}, {"smiles": "c1ccc2c(c1)CCN=C(SCCCN1CCCC1)N2", "note": "[Example 190, 2-((3-(pyrrolidin-1-yl)propyl)thio)-4,5-dihydro-3H-benzo[d][1,3]diazepine dihydrochloride]", "values": [{"measurement": "IC50", "value": "10 to 32", "unit": "µM"}]}, {"smiles": "c1ccc2c(c1)CCN=C(SCCN1CCCc3ccccc31)N2", "note": "[Example 191, 2-((2-(3,4-dihydroquinolin-1(2H)-yl)ethyl)thio)-4,5-dihydro-1H-benzo[d][1,3]diazepine hydrochloride]", "values": [{"measurement": "IC50", "value": "10 to 32", "unit": "µM"}]}, {"smiles": "c1ccc2c(c1)CCN=C(SCCN1CCc3ccccc31)N2", "note": "[Example 192, 2-((2-(indolin-1-yl)ethyl)thio)-4,5-dihydro-1H-benzo[d][1,3]diazepine hydrochloride]", "values": [{"measurement": "IC50", "value": "10 to 32", "unit": "µM"}]}, {"smiles": "c1cncc(CSC2=NCc3ccccc3CN2)c1", "note": "[Example 193, 3-((pyridin-3-ylmethyl)thio)-2,5-dihydro-1H-benzo[e][1,3]diazepine]", "values": [{"measurement": "IC50", "value": "> 32", "unit": "µM"}]}, {"smiles": "c1ccc2c(c1)CN=C(SCCCN1CCCC1)NC2", "note": "[Example 194, 3-((3-(pyrrolidin-1-yl)propyl)thio)-2,5-dihydro-1H-benzo[e][1,3]diazepine dihydrochloride]", "values": [{"measurement": "IC50", "value": "> 32", "unit": "µM"}]}, {"smiles": "Fc1ccc(CC2CN3C(CSC4=NCc5ccccc5N4)=CSC3=N2)cc1", "note": "(centres unmarked) [Example 196, 3-(((1,4-dihydroquinazolin-2-yl)thio)methyl)-6-(4-fluorobenzyl)-5,6-dihydroimidazo[2,1-b]thiazole dihydrochloride]", "values": [{"measurement": "IC50", "value": "≤ 10", "unit": "µM"}]}, {"smiles": "CC(C)(C)OC(=O)N1CC[C@H](SC2=NCCc3ccccc3N2)C1", "note": "[Example 198, tert-butyl (S)-3-((4,5-dihydro-1H-benzo[d][1,3]diazepin-2-yl)thio)pyrrolidine-1-carboxylate]", "values": [{"measurement": "IC50", "value": "10 to 32", "unit": "µM"}]}, {"smiles": "c1ccc2c(c1)CCN=C(S[C@H]1CCNC1)N2", "note": "[Example 199, (S)-2-(pyrrolidin-3-ylthio)-4,5-dihydro-3H-benzo[d][1,3]diazepine dihydrochloride]", "values": [{"measurement": "IC50", "value": "10 to 32", "unit": "µM"}]}]}
